Measured values: publication PMC10028969 (bioRxiv, 2023)

Key:
T. b. brucei Lister 427 [1] = experiment: SYBR Green viability assay with T. brucei; type: cell-based; conditions: Trypanosoma brucei, 72 h, read-out: T. b. brucei Lister 427 EC50 (nM) ± SD
[2] = HEK-293 counter-screen assay; type: cell-based; conditions: human, HEK-293 cells
T. b. brucei Lister 427 [3] = experiment: Time-kill assays; type: cell-based; conditions: Trypanosoma brucei, 12 h, read-out: parasite viability
T. b. brucei Lister 427 [4] = experiment: Mouse model of T. brucei infection; type: in vivo, Trypanosoma brucei brucei

N=C(N)c1ccc(OCCCCCOc2ccc(C(=N)N)cc2)cc1 [Pentamidine, pentamidine]
EC50 (T. b. brucei Lister 427 [1]): 69.6 ± 35.5 nM
CC50 at 48 h [2]: > 4000 nM
viability at 4 µM (T. b. brucei Lister 427 [3]): 52.8%
mouse survival (T. b. brucei Lister 427 [4]; 4 mg/kg i.p. on day 2, end of the study, without parasite recrudescence): ≥ 15 day post-infection
parasitemia within 24 h of administration (T. b. brucei Lister 427 [4]; single i.p. dose 4 mg/kg on day 2 post-infection, BALB/c female mice): < 2.5 × 10^5 parasites/ml
